According to patent US20250163057A1, “DCN-1 MODULATING COMPOUNDS AND METHODS OF USE THEREOF” (Cellarity, Inc., priority 2023, published 2025):

Assays:
[1] = tested on: fetal hemoglobin protein (HbF) in human erythroid progenitor cells; experiment: Humanized mouse model: HbF protein in bone marrow by AlphaLISA; format: in vivo, NBSGW mice reconstituted with human CD34+ cells; settings: humanized mouse model, human erythroid progenitor cells, dose not given at this place
Description: (§1) Results: To evaluate induction of target cell activity in the bone marrow, a humanized mouse model was developed. This model entails the reconstitution of human hematopoietic progenitor cells within the bone marrow of immunodeficient nonirradiated NOD.Cg-KitW-41J Tyr^+ Prkdc^scid Il2rg^tmlwjl/ThomJ (NBSGW) strain recipient mice. These mice are competent to engraft and differentiate human erythroid progenitor cells that express human adult hemoglobin mRNA and protein subunits within bone marrow.
(§2) Based on these exposure results, humanized mice were treated with either the clinical standard of care compound, hydroxyurea (50 mg/kg; bid), or I-73, at 25 and 100 mg/kg (bid), by oral gavage over a three-week period. At the end of the treatment period, bone marrow was harvested for flow cytometry, as well as for assessment of HbF protein and fetal hemoglobin (HBG1) mRNA levels. Levels of both HbF protein and HBG1 mRNA were normalized to the percentage of human erythroid progenitor cells in the bone marrow of each mouse as determined by immunofluorescence staining for human Glycophorin A cell membrane expression. […] In addition, relative levels of fetal hemoglobin to those of potentially sickling-prone adult hemoglobin (HBB) was assessed.
(§3) Female, 6-week-old NOD.Cg-Kit^W-41J Tyr^+ Prkdc^scid Il2rg^tm1Wjl/ThomJ (NBSGW) mice (Jackson Laboratory strain #[…]) were used for these studies. The mice were acclimatized to laboratory conditions for 5 days prior to inoculation.
(§4) GCSF-mobilized human CD34+ cells were removed from liquid nitrogen storage, thawed in a 37° C. water bath and transferred quickly into a 50 mL conical tube. Cryovial was rinsed once with thaw buffer, 0.1% BSA in phosphate buffered saline (PBS), and buffer was transferred and combined with the original contents in the 50 mL conical tube. Next, doubling volumes of thaw buffer was added to the conical and gently swirled for ˜30 seconds to one minute until the volume in the conical was 32 mL. Cells and buffer were centrifuged at 300G for 8 minutes, and the supernatants were aspirated. Cells were counted by resuspending in 1 mL of thawing buffer per million of cells to a target concentration range of 0.5 to 2M/ml and counting with AOPI (1:1) on a luna cell counter to confirm the concentration of cells/mL. The cell concentration was adjusted to 3×10^6 cells/ml. For each mouse, 300 thousand cells in 0.1 ml were injected into the tail vein with a 25-gauge needle.
(§5) On day 56 after human cell adoptive transfer, whole blood was collected from each mouse by submandibular bleed and a 100 μL sample of EDTA whole blood was transferred to a 2 ml tube containing 1.8 mL ACK Lysing Buffer at room temperature (RT), and then inverted to mix. Samples were incubated at RT for 15 min in the dark to lyse. After lysis, samples are centrifuged at 500×g for 5 minutes at RT to enable supernatant decanting. Remaining cells were washed with 1 mL of PBS-0.5% BSA and centrifuged at 500×g for 5 minutes at 4° C. Supernatant was decanted and cells were stained with leukocyte markers (human and mouse CD45 antibodies; BD347464, BD557659) to confirm human cell engraftment. Mice having less than one percent, or greater than ten percent, human CD45 positive cells were excluded from the subsequent study. Remaining mice were then randomized into treatment groups based on percentage of human cell engraftment. Each treatment group included 10-11 mice.
(§6) Compound I-73 was dissolved in a 5% Cremophor RH40, 20% hydroxylpropyl-β-cyclodextrin solution. Hydroxyurea was solubilized in PBS. Formulations were prepared fresh daily. Commencing on day 84 post human cell engraftment, mice were treated by oral gavage with either I-73, hydroxyurea or their respective vehicles, for a period of three weeks using either once daily (QD) or twice daily (BID) dosing regimens. Mice were monitored daily for body weight and condition. […]

[2] = tested on: fetal hemoglobin gene expression (HBG1) in human erythroid progenitor cells; experiment: Humanized mouse model: fetal hemoglobin mRNA (HBG1, HBB) in bone marrow by Nanostring; format: in vivo, NBSGW mice reconstituted with human CD34+ cells; settings: humanized mouse model, human erythroid progenitor cells, dose not given at this place
Description: as §1, §2, §3, §4, §5, §6

[3] = tested on: HBG1 mRNA and HbF protein in bone marrow cells; experiment: Induction of fetal hemoglobin by hydroxyurea and I-73 in human CD34+ cell reconstituted immunodeficient mice, with analysis of synergistic effect; format: in vivo, NBSGW mice engrafted with human CD34+ cells
Protocol: The model employed for assessment of induction of fetal hemoglobin by I-73 and hydroxyurea involved the use of human stem cell-reconstituted immunodeficient mice. Specifically, three hundred thousand human CD34-positive cells from G-CSF-mobilized human peripheral blood […] (PBMCs) were injected into the tail veins of NOD.Cg-KitW-41J Tyr+Prkdcscid Il2rgtm1Wjl/ThomJ (NBSGW) mice (JAX Strain No. 026622) on day 0. Twelve weeks later, mice were checked for human cell engraftment by sampling PBMCs from blood taken from the tail vein and staining for expression of murine or human CD45 by flow cytometry. After removing from the study those mice having greater than 10% human cells or less than 1% human cells in their peripheral blood, the remaining mice were randomized into treatment groups based on the human cell percentage. Thirteen weeks post engraftment, treatment was initiated with either hydroxyurea, I-73, or a combination of both compounds. Hydroxyurea was formulated in PBS (pH 7.4) and I-73 was formulated in 5% Cremophor RH 40/20% hydroxypropyl-β-cyclodextrin (Crem-CD) daily. Mice received either PBS or hydroxyurea each morning and I-73 or Crem-CD each afternoon by oral gavage. After twenty days of daily treatment, the mice were euthanized and their bone marrow (femurs, tibia and critae) were individually collected for subsequent analysis.
Bone marrow cell pellets (total 500K cells) were lysed in 20 μL of RLT (QIAGEN, 79216) with 1×β-mercaptoethanol (Gibco, 21985-023) and H2O followed by hybridizations. Hybridizations were done in a total volume of 15 μL [3 μL of RNA lysate added to master mix of 12 μL probe A/B (purchased from IDT), capture probe/reporter probes (NanoString™, XT TagSet-24, 121000602), proteinase K (Fisher Scientific, E00491) and H2O suspended in hybridization buffer]. Samples were hybridized at 65° C. for 22 hr. Following hybridization, the tripartide complexes were purified, immobilized by nCounter Prep Station and imaged by Digital Analyzer (nCounter MAX/FLEX Analysis System), to generate digital counts of barcodes corresponding to each target in the multiplexed reaction. Labeled barcodes obtained from unamplified extracts were counted at 555 images or field of view (FOV). The barcode counts for each sample were recorded in Reporter Code Count (RCC) files that are imported into nSolver analysis software (provided with CodeSet by NS) for quality control evaluation.
To assess levels of fetal hemoglobin by AlphaLISA, cells (200 k bone marrow cells/well) were lysed by resuspending pellets in 200 μL of lysis buffer plus protease inhibitor cocktail (100×), mixed well and incubating at room temperature for 30 minutes on the plate shaker @300 RPMs. Samples were then diluted 1:10 in a new 96-well round bottom plate by taking 10 uL of lysate and adding 90 μL of AlphaLISA immunoassay buffer. To create the “reaction plate”, 20 μL of Acceptor Beads (50 ug/mL final concentration) was added to each well using a multi-channel pipet. 10 uL of diluted cell lysate was added to the wells and mixed well. 20 μL of AlphaLISA immunoassay buffer was added to each well. Biotinylated antibody (final concentration) was then added to each well. The reaction plate on then placed on a plate shaker at 300 rpm for one hour to incubate at room temperature. After the first incubation was complete, 50 μL of Donor Beads ([…] final concentration) was added to each well and mixed well, keeping the plate in the dark. The covered plate was placed on a shaker at 350 rpm for 30 minutes to incubate at room temperature. After incubation, all 100 uL in each to an AlphaPlate in the dark. Plates were read on a VictorNIVO using the “Alpha 96 Well” setting. Alpha reading was programmed as the default setting with emission at 700 ms and 575/110n. […]

## NC(=O)NO [hydroxyurea]
[1]
  induction of fetal hemoglobin protein (HbF): demonstrated to induce
[1]; listed as Hydroxyurea
  induction of fetal hemoglobin protein (HbF): significantly induces
[2]
  induction of fetal hemoglobin mRNA (HBG1): demonstrated to induce
[2]; listed as Hydroxyurea
  induction of fetal hemoglobin mRNA (HBG1): significantly induces
[3]; HU 75 mg/kg alone, WLS ANOVA estimate
  average increase of HbF % over vehicle: 0.59
[3]; alone or in combination with I-73
  percentage of bone marrow cells expressing the erythroid cell marker glycophorin A: dose-dependent increase
[3]; compared with vehicle treatment group, FIG. 7
  percentage of HbF protein by HPLC in GlyA-positive bone marrow cells: significant increase
[3]; in vivo
  percentage of bone marrow cells expressing human CD45: did not alter
[3]; treatment alone
  HbF level on a per erythroid progenitor (GlyA-positive) cell basis by AlphaLISA: less HbF induction
